Experimental data reported in patent US20220091133A1, “METHODS AND ASSAYS FOR IMMUNE PHENOTYPING” (Washington University, priority 2020, published 2022).

What was measured:
[1] = test system: pSTAT5 in CD4 and CD8 T cells; test: Mass cytometry (CyTOF) of intracellular phospho-STAT5 in T cells; assay type: in vivo, human
Text: To measure the specific molecular effects underlying the increased T cell responsiveness induced by IL-7, we measured intracellular levels of phospho-STATS (pSTAT5) in CD4 and CD8 T cells using mass cytometry. STATS is the primary T cell differentiation signal downstream of the IL-7 receptor [12]. T cells were identified based on surface marker staining (CD45+/CD15−/CD66b−/CD56−/CD3+). We then measured the pSTAT5 signal intensity. IL-7 was associated with a 3-fold increase in activated STATS in CD4-T cells and a 2-fold increase in CD8-T cells (FIG. 28C).

fungal sepsis = settings: in vivo; cited from earlier work
SARS-CoV-2 = test: COVID-19-specific antibody levels (Example 5); assay type: in vivo, human; settings: critically ill COVID-19 patient
[2] = test system: Trichosporon asahii and Saksenaea species; test: Tissue, wound, blood and bone cultures of the fungal wound sepsis patient; assay type: in vivo, human
Text: They were aggressively treated with daily or alternating-day operative debridement, broad-spectrum parenteral and topical antibacterial and antifungal therapy. Antimicrobial therapy included ceftazidime, metronidazole, trimethoprim-sulfamethoxazole, micafungin, amphotericin B, and posaconazole (FIG. 29), as well as VERAFLO vac instillation of antimicrobials into the wound bed. The patient's polymicrobial soft tissue infection continued to advance and was accompanied by multisystem organ failure and shock. Over a 4-week period, they required debridement of >3000 cm^2 of skin, subcutaneous tissue, and muscle involving the entire perineum, bilateral thighs, buttocks, and circumferential abdominal wall (FIG. 28B).
Tissue histology also became negative for fungus at approximately the same time as tissue cultures (FIG. 28E).

[3] = test system: lymphocytes in infected wound; test: Anti-CD3 immunohistochemical staining of wound biopsies; assay type: in vivo, human; settings: after initiation of IL-7
Text: A beneficial effect of IL-7 in infectious disorders is to increase expression of lymphocyte adhesion molecules and induce lymphocyte trafficking to sites of infection.

[4] = test system: PBMCs (myeloid cell TNF-α production); test: PBMC ELISpot, LPS-stimulated TNF-α production (Example 2); assay type: cell-based, human
Experimental: (§1) Fresh whole blood samples were processed within 90 min of collection as previously described (28). Briefly, blood was diluted in an equal volume of PBS and layered carefully on Ficoll Paque PLUS (GE Healthcare). The PBMC fraction was isolated following centrifugation at 500×g for 30 min at room temperature. The number of total PBMCs was determined with a Vi-CELL Viability Analyzer (Beckman Coulter, Brea, Calif.). Flow cytometry was performed on PBMC fraction for cell typing.
Innate and adaptive immune function was assessed using ELISpot analysis by measurement of the production of IFN-γ and TNF-α in ex vivo-stimulated cells following overnight culture. Capture Ab precoated 96-well polyvinylidene difluoride-backed strip plates were used for single color enzymatic assays (ImmunoSpot; Cellular Technology [CTL], Cleveland, Ohio) for detection of human IFN-γ and TNF-α. ELISpot culture procedure was followed as directed using instructions from the ELISpot kit. Samples were run in duplicate for each test condition. Plates were prepared with stimulant and were incubated at 37° C. and 5% CO2 for 30 min prior to plating cells. Identical conditions were prepared for comparison of whole blood assay to PBMC assay, and culture media alone was used as a negative control. Combination of 500 ng/ml of anti-CD3 (clone HIT3a; BioLegend) with 2.5 μg/ml of anti-CD28 (clone CD28.2; BioLegend) Abs were used to induce IFN-γ, and 2.5 ng/ml LPS (from Salmonella abortus equi S-form, ALX-581-009; Enzo Life Sciences, Farmingdale, N.Y.) was used to induce TNF-α wells. Total well volume for all samples was 200 μl. PBMCs were plated into wells in quantities of 2.5×10^4 cells per well for IFN-γ and 2.5×10^3 cells per well for TNF-α. […]
(§2) Samples were scanned, analyzed, and quality controlled for spot count, spot area, and TWI using a Cellular Technology series 6 ImmunoSpot Universal Analyzer with ImmunoSpot 7.0 professional software (Cellular Technology Analyzers, Shaker Heights, Ohio). […]
The number of cytokine-secreting cells present in each ELISpot well is referred to as spot-forming units (SFU) and is reported in two distinct ways. […] The number of lymphocytes in each well was determined based upon the absolute lymphocyte count as measured by the patients' complete blood count. For ELISpot studies involving PBMCs, flow cytometry was performed on the PBMC fraction, and the number of lymphocytes, monocytes, and residual neutrophils were determined. […] Samples were acquired on FACScan (Becton Dickenson, Franklin Lakes, N.J.) with a five-color modification (CyTek Biosciences, Fremont, Calif.) and analyzed using FlowJo 10.2 (FlowJo, Ashland, Oreg.) as previously described (28). […]

[5] = test system: PBMCs (T cell IFN-γ production); test: PBMC ELISpot, CD3/CD28-stimulated IFN-γ production (Example 2); assay type: cell-based, human
Experimental: as §1
Innate and adaptive immune function was assessed using ELISpot analysis by measurement of the production of IFN-γ and TNF-α in ex vivo-stimulated cells following overnight culture. […] PBMCs were plated into wells in quantities of 2.5×10^4 cells per well for IFN-γ and 2.5×10^3 cells per well for TNF-α. […]
as §2
The number of cytokine-secreting cells present in each ELISpot well is referred to as spot-forming units (SFU) and is reported in two distinct ways. […] The number of lymphocytes in each well was determined based upon the absolute lymphocyte count as measured by the patients' complete blood count. […]

[6] = test system: T cells (IFN-γ production); test: IFN-γ ELISPOT on patient PBMCs before and during IL-7 therapy (Example 3); assay type: in vivo, human; settings: anti-CD3/anti-CD28 ex vivo stimulation, before vs during IL-7 therapy
Experimental: The effect of IL-7 in terms of improving the patient's T cell function was evaluated by an ex vivo stimulation assay using anti-CD3 and anti-CD28 antibodies (BioLegend, San Diego, Calif., USA) on an IFN-γ ELISPOT assay (Cellular Technologies Limited, Shaker Heights, Ohio, USA), which was performed as previously described.

IL-7: recombinant human IL-7, immunoadjuvant and potent T cell activator; R&D Systems ex vivo, RevImmune for patients
increase in activated STAT5 (pSTAT5 signal intensity) ([1]; CD4-T cells): 3 fold
increase in activated STAT5 (pSTAT5 signal intensity) ([1]; CD8-T cells): 2 fold
STAT5 expression in lymphocytes after initiation of IL-7 compared with pretreatment ([1]; CyTOF, geometric mean raw signal intensity): doubling
survival in a 2-hit animal model of fungal sepsis (fungal sepsis): increase survival
Coronavirus disease immunoglobulin G/M/A (SARS-CoV-2; Post IL-7, Day 12): High positive
Coronavirus disease immunoglobulin G/M/A (SARS-CoV-2; Post IL-7, Day 21): High positive
tissue cultures after initiation of IL-7 therapy ([2]; by the fifth dose of IL-7): persistently negative cultures
time blood, wound and bone cultures stayed negative for bacterial or fungal pathogens after completing IL-7 therapy ([2]; human, in vivo): 40 days
number of CD3+ lymphocytes in biopsies from the infected wound [3]: marked increase
septic patients in whom IL-7 increased TNF-α production ([4]; PBMC ELISpot, patients out of total): 13/19
change in TNF-α SFUs with IL-7 ([4]; PBMC, CINS): significant increase
change in TNF-α SFUs with IL-7 ([4]; PBMCs, healthy subjects): no change
overall increase in TNF-α SFUs with IL-7 ([4]; PBMCs, septic patients, p<0.01): 97%
effect of IL-7 on IFN-γ SFUs ([5]; PBMC, healthy subjects and CINS patients): significantly increased
effect of IL-7 on T cell IFN-γ production ([5]; PBMCs, septic patients, p<0.0001): restore T cell IFN-γ production
increase in the proportion of activated, IFN-γ-producing T cells from baseline [6]: 1.4 fold
